# In ChEMBL document CHEMBL2380247, “Synthesis and biological evaluation of novel aliphatic amido-quaternary ammonium salts for anticancer chemotherapy: part II” (2013):
# Activity calls are given as the source filed them. The rule behind the calls is not given here.
# Key:
# [1] = system: ACHN; test: Antiproliferative activity against human ACHN cells at 0.3 uM by SRB assay; type: functional
# [2] = system: NUGC-3; test: Antiproliferative activity against human NUGC3 cells at 10 uM by SRB assay; type: functional
# [3] = system: NUGC-3; test: Antiproliferative activity against human NUGC3 cells at 0.3 uM by SRB assay; type: functional
# [4] = system: PC-3; test: Antiproliferative activity against human PC3 cells at 3 uM by SRB assay; type: functional
# [5] = system: PC-3; test: Antiproliferative activity against human PC3 cells at 10 uM by SRB assay; type: functional
# [6] = system: ACHN; test: Antiproliferative activity against human ACHN cells at 0.1 uM by SRB assay; type: functional
# [7] = system: HCT-15; test: Antiproliferative activity against human HCT15 cells at 0.3 uM by SRB assay; type: functional
# [8] = system: ACHN; test: Antiproliferative activity against human ACHN cells by SRB assay; type: functional
# [9] = system: HCT-15; test: Antiproliferative activity against human HCT15 cells at 0.1 uM by SRB assay; type: functional
# [10] = system: NCI-H23; test: Antiproliferative activity against human NCI-H23 cells at 0.1 uM by SRB assay; type: functional
# [11] = system: NCI-H23; test: Antiproliferative activity against human NCI-H23 cells at 1 uM by SRB assay; type: functional
# [12] = system: PC-3; test: Antiproliferative activity against human PC3 cells at 1 uM by SRB assay; type: functional
# [13] = system: NUGC-3; test: Antiproliferative activity against human NUGC3 cells at 3 uM by SRB assay; type: functional
# [14] = system: NCI-H23; test: Antiproliferative activity against human NCI-H23 cells by SRB assay; type: functional
# [15] = system: HCT-15; test: Antiproliferative activity against human HCT15 cells by SRB assay; type: functional
# [16] = system: PC-3; test: Antiproliferative activity against human PC3 cells at 0.3 uM by SRB assay; type: functional
# [17] = target: Rho-related GTP-binding protein RhoB (Homo sapiens) (UniProt P62745); test: Transactivation of RhoB in human HeLa cells by luciferase reporter assay; type: cell-based
# [18] = system: NCI-H23; test: Antiproliferative activity against human NCI-H23 cells at 10 uM by SRB assay; type: functional
# [19] = system: NCI-H23; test: Antiproliferative activity against human NCI-H23 cells at 3 uM by SRB assay; type: functional
# [20] = system: ACHN; test: Antiproliferative activity against human ACHN cells at 10 uM by SRB assay; type: functional
# [21] = system: MDA-MB-231; test: Antiproliferative activity against human MDA-MB-231 cells at 0.1 uM by SRB assay; type: functional
# [22] = system: NUGC-3; test: Antiproliferative activity against human NUGC3 cells by SRB assay; type: functional
# [23] = system: PC-3; test: Antiproliferative activity against human PC3 cells by SRB assay; type: functional
# [24] = system: MDA-MB-231; test: Antiproliferative activity against human MDA-MB-231 cells at 3 uM by SRB assay; type: functional
# [25] = system: ACHN; test: Antiproliferative activity against human ACHN cells at 1 uM by SRB assay; type: functional
# [26] = system: NCI-H23; test: Antiproliferative activity against human NCI-H23 cells at 0.3 uM by SRB assay; type: functional
# [27] = system: HCT-15; test: Antiproliferative activity against human HCT15 cells at 1 uM by SRB assay; type: functional
# [28] = system: NUGC-3; test: Antiproliferative activity against human NUGC3 cells at 0.1 uM by SRB assay; type: functional
# [29] = system: HCT-15; test: Antiproliferative activity against human HCT15 cells at 10 uM by SRB assay; type: functional
# [30] = system: NUGC-3; test: Antiproliferative activity against human NUGC3 cells at 1 uM by SRB assay; type: functional
# [31] = system: MDA-MB-231; test: Antiproliferative activity against human MDA-MB-231 cells at 1 uM by SRB assay; type: functional
# [32] = system: MDA-MB-231; test: Antiproliferative activity against human MDA-MB-231 cells at 0.3 uM by SRB assay; type: functional
# [33] = system: MDA-MB-231; test: Antiproliferative activity against human MDA-MB-231 cells by SRB assay; type: functional
# [34] = system: HCT-15; test: Antiproliferative activity against human HCT15 cells at 3 uM by SRB assay; type: functional
# [35] = target: Rho-related GTP-binding protein RhoB (Homo sapiens) (UniProt P62745); test: Inhibition of RhoB transactivation in human HeLa cells by luciferase reporter assay; type: cell-based
# [36] = system: ACHN; test: Antiproliferative activity against human ACHN cells at 3 uM by SRB assay; type: functional
# [37] = system: PC-3; test: Antiproliferative activity against human PC3 cells at 0.1 uM by SRB assay; type: functional
# [38] = system: MDA-MB-231; test: Antiproliferative activity against human MDA-MB-231 cells at 10 uM by SRB assay; type: functional
# Chain of Rho-related GTP-binding protein RhoB (Homo sapiens) (P62745 whole entry): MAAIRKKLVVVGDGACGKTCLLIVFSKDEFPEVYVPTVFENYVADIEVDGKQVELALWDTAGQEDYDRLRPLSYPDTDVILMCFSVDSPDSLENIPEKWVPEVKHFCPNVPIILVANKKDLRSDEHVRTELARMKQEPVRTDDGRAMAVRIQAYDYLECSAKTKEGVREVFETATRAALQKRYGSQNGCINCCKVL
GI50 [8] [nM],GI50 [14] [nM],GI50 [15] [nM],Activity [17],Compound,"growth, % of control at 0.3 µM [1] [%]","growth, % of control at 10 µM [2] [%]","growth, % of control at 0.3 µM [3] [%]","growth, % of control at 3 µM [4] [%]","growth, % of control at 10 µM [5] [%]","growth, % of control at 0.1 µM [6] [%]","growth, % of control at 0.3 µM [7] [%]","growth, % of control at 0.1 µM [9] [%]","growth, % of control at 0.1 µM [10] [%]","growth, % of control at 1 µM [11] [%]","growth, % of control at 1 µM [12] [%]","growth, % of control at 3 µM [13] [%]","growth, % of control at 0.3 µM [16] [%]","growth, % of control at 10 µM [18] [%]","growth, % of control at 3 µM [19] [%]","growth, % of control at 10 µM [20] [%]",other results
3400,1680,790,Active,CCCCCCCCCCCCCCCCCC(=O)NCCC[N+](C)(C)C,101,15.3,93,3.63,-14.7,99.2,86.5,90.7,102,90.7,51.3,37.7,97.7,5.43,56.5,42.8,"growth, % of control at 0.1 µM [21]: 96%; GI50 [22]: 970 nM; GI50 [23]: 520 nM; growth, % of control at 3 µM [24]: 59.9%; growth, % of control at 1 µM [25]: 85%; growth, % of control at 0.3 µM [26]: 103%; growth, % of control at 1 µM [27]: 64.3%; growth, % of control at 0.1 µM [28]: 98.4%; growth, % of control at 10 µM [29]: 11.2%; growth, % of control at 1 µM [30]: 63.8%; growth, % of control at 1 µM [31]: 92.5%; growth, % of control at 0.3 µM [32]: 98.1%; GI50 [33]: 2410 nM; growth, % of control at 3 µM [34]: 30.8%; inhibition [35]: Active; growth, % of control at 3 µM [36]: 64.3%; growth, % of control at 0.1 µM [37]: 97.5%; growth, % of control at 10 µM [38]: 29.9%"
360,1520,800,Active,CCCCCCCCCCCCCCCCCC(=O)N(C)CC[N+](C)(C)C,71.3,-18.7,49,1.1,-11.6,81.8,98.6,92.9,94.3,84.4,39.3,2.4,91.9,11.1,51.6,-15.6,"growth, % of control at 0.1 µM [21]: 90.6%; GI50 [22]: 140 nM; GI50 [23]: 420 nM; growth, % of control at 3 µM [24]: 37%; growth, % of control at 1 µM [25]: 44.6%; growth, % of control at 0.3 µM [26]: 90.2%; growth, % of control at 1 µM [27]: 61.4%; growth, % of control at 0.1 µM [28]: 77.9%; growth, % of control at 10 µM [29]: 20.5%; growth, % of control at 1 µM [30]: 10.4%; growth, % of control at 1 µM [31]: 77.2%; growth, % of control at 0.3 µM [32]: 84.2%; GI50 [33]: 1070 nM; growth, % of control at 3 µM [34]: 25.4%; inhibition [35]: Active; growth, % of control at 3 µM [36]: 23.4%; growth, % of control at 0.1 µM [37]: 93.2%; growth, % of control at 10 µM [38]: 12.8%"
